Source: PMC6930570, “2-Arylidene-1-indandiones as Pleiotropic Agents with Antioxidant and Inhibitory Enzymes Activities” (Molecules, 2019)

Key:
[1] = test system: trypsin; assay: In vitro inhibition of trypsin induced proteolysis; type: biochemical; conditions: bovine albumin substrate, no = no action under the experimental conditions
Description: Serine proteases are implicated in the pathophysiology of inflammatory diseases and trypsin is well known years ago [66]. Trypsin has been associated with host defense reactions and tissue damage. In this study, the novel derivatives have been evaluated towards trypsin and thrombin. Compounds 8 and 9 present high activity.
The Kunitz method was used after modification using bovine albumin was used as substrate for trypsin. In this assay, first 200 μL of 0.075 mg/mL trypsin and 780 μL of phosphate buffer pH 7.6 including the tested compounds (20 μL in DMSO, final concentration 100 μM) were pre-incubated at 37 °C for 20 min and then added 1 mL of albumin (stock solution 6 g/100 mL in phosphate buffer 0.1 M, pH 7.6) and incubated at 37 °C for 30 min. Secondly 1mLof 5% trichloroacetic acid was added to the incubated solution to stop the enzyme’s reaction and allowed to set at room temperature for 1 h. Then the solution was filtered, and the absorption of the filtrate was measured at 280 nm using salicylic acid as a reference compound [61] (Table 3).

[2] = Experimental lipophilicity as RM values by RPTLC; type: physicochemical; parameters: key: RM = log[(1/Rf) − 1], from Rf values by RPTLC; conditions: methanol/water 70/30, 24 °C, average of at least 5 measurements
From the text: Lipophilicity is a physicochemical parameter indicating the relationship of a drug to its biological activity. It affects ligand-target binding interactions, solubility, ADME (absorption, distribution, bioavailability, metabolism, and elimination) and toxicological effects. RPTLC (reverse phase thin layer chromatography) method was used for the experimental determination, as RM values. The RPTLC method is considered a secure, rapid and appropriate method for expressing the lipophilic character of a compound (Table 1).
Reversed phase TLC (RPTLC) was performed on silica gel plates impregnated with 5% (v/v) liquid paraffin in light petroleum ether. The mobile phase was a methanol/water mixture (70/30, v/v). The plates were developed in closed chromatography tanks saturated with the mobile phase at 24 °C. Spots were detected under UV light. Five individual measurements of Rf values were recorded and used for the determination of RM using the equation RM = log [(1/Rf) − 1] [59, 60, 62] (Table 2).

[3] = Inhibition of linoleic acid peroxidation induced by AAPH; type: biochemical; conditions: no = no action under the experimental conditions
From the text: In the water soluble 2,2′-azobis(2-amidinopropane) hydrochloride (AAPH) the free radicals are produced in vitro through spontaneous thermal decomposition resembling to lipid peroxidation in cells due to the action of the peroxyl radicals. […] Compounds 11, 5, 4 and 3 presented no activity under the experimental conditions. From the experimental results it can be concluded that the 3,5-di-tert-butyl-group offers protection against lipid peroxidation. Electronic parameters expressed by the highest occupied molecular orbital (HOMO) describes better the biological activity (Equation (2)). log AAPH % = −22.042(± 8.731) HOMO − 4.853 (2.622)(2) n = 8, r = 0.930, r^2 = 0.864, q^2 = 0.567, s = 0.146, F1,8 = 5.783, α = 0.1
The oxidation reaction was started with 2,2′-Azobis(2-amidinopropane) dihydrochloride (AAPH) as a free radical initiator. Linoleic acid sodium salt was oxidized at 234 nm to a conjugated diene hydroperoxide resulting an increased absorption. Trolox was used as reference compound (93%) (Table 3).

[4] = Reducing activity of the stable radical DPPH; type: biochemical
Description: The novel derivatives were studied for their interaction with the sTable 2,2-diphenyl-1-picrylhydrazyl free radical (DPPH)at concentration 50 µM, 100 µM and 200 µM after 20 and 60 min (Table 2). In this assay the DPPH radical is reduced transferring one electron from the antioxidant. Phenolic compounds such as catechol and derivatives generate phenoxide anions with strong antioxidant capacity. Nordihydroguaretic acid (NDGA), the reference compound acts by this mechanism. Compound 10 presents the highest scavenging activity at 100 µM after 20 min correlated with the presence of the phenolic OH. Compounds 3, 4, 5, 7 presented medium activities depending from time and concentration. The presence of the heteroatom O or S seems to influence the activity e.g., derivatives 1, 2, and 3. Replacement of phenyl ring (4) by a thienyl group (1) decreases antioxidant behavior. […] On the contrary the presence of the furyl ring (3) enhances reduction. Additionally, the presence of a π-dimethyl-amino group 6 reduces the scavenging ability whereas its absence in (5), increases the activity. The presence of two conjugated double bonds (5) leads to lower activity compared to the simpler compound 4. Compounds 9 and 10 present the highest milogP values (5.94). Both include a phenolic hydrogen in their structure. […] On the contrary in compound 9 steric reasons are possible to lead to a decrease. Lipophilicity seems to influence the interaction of compound 10.
To a solution of DPPH in absolute ethanol an equal volume of the compounds with final concentrations of 50, 100 and 200 µM from a stock solution of 10 mM (in 1% DMSO and ethanol) was added. After 20 and 60 min the absorbance was recorded at 517 nm at room temperature (Table 2).

[5] = Superoxide anion radical scavenging activity (PMS/NADPH/NBT); type: biochemical; conditions: 100 μM (stated for compound 3)
Description: The compounds have been tested to scavenge superoxide anion radicals. However, no results were recorded under the experimental conditions.
The superoxide anion producing system was set up by mixing PMS, NADPH, and air oxygen. The production of superoxide anion was estimated by the nitrobluetetrazole NBT method. The reaction mixture containing compounds, 3 μM PMS, 78 μM NADPH, and 25 μM NBT in […] phosphate buffer pH 7.4 was incubated for 2 min at room temperature and the absorption was measured at 560 nm against a blank containing PMS. The tested compounds were pre-incubated for 2 min before adding NADPH. Caffeic acid was used as an appropriate standard (76%).

In the case of `Cc1ccsc1C=C1C(=O)c2ccccc2C1=O` [Compound 2, (Z)-2-((3-methylthiophen-2-yl)methylene)-1H-indene-1,3(2H)-dione], the “Iptr% 100 µM (inhibition of trypsin induced proteolysis)” value [1] is reported as “do not present any activity and no”, the “RM (±SD)” value [2] is reported as 0.031 ± 0 and the melting point is reported as 171 to 172 °C. The “AAPH% 100 µM (anti-lipid peroxidation)” value [3] was 92%, the “RA% 50 µM 20 min” value [4] was 2% and the “RA% 50 µM 60 min” value [4] was 2%. For the same molecule, the “RA% 100 µM 20 min” value [4] was 16%, the “RA% 100 µM 60 min” value [4] was 16% and the “RA% 200 µM 20 min” value [4] was 4%. For the same molecule, the “RA% 200 µM 60 min” value [4] was 7%.
For `Cc1ccc(C=C2C(=O)c3ccccc3C2=O)o1` [Compound 3, (Z)-2-((5-methylfuran-2-yl)methylene)-1H-indene-1,3(2H)-dione], the “Iptr% 100 µM (inhibition of trypsin induced proteolysis)” value [1] was 17%, the “RM (±SD)” value [2] was 0.014 ± 0 and the “AAPH% 100 µM (anti-lipid peroxidation)” value [3] was “no activity and no”. For the same molecule, the “RA% 50 µM 20 min” value [4] was 20%, the “RA% 50 µM 60 min” value [4] was 23% and the “RA% 100 µM 20 min” value [4] was 37%. For the same molecule, the “RA% 100 µM 60 min” value [4] was 40%, the “RA% 200 µM 20 min” value [4] was 61% and the “RA% 200 µM 60 min” value [4] was 75%. For the same molecule, the “superoxide anion scavenging activity” value [5] was 20%.
With `O=C1C(=Cc2ccccc2)C(=O)c2ccccc21` [Compound 4, 2-benzylidene-1H-indene-1,3(2H)-dione] the “Iptr% 100 µM (inhibition of trypsin induced proteolysis)” value [1] was 4%, the “RM (±SD)” value [2] was −0.615 ± 0.02 and the “AAPH% 100 µM (anti-lipid peroxidation)” value [3] was “no activity and no”. For the same molecule, the “RA% 50 µM 20 min” value [4] was 5%, the “RA% 50 µM 60 min” value [4] was 10% and the “RA% 100 µM 20 min” value [4] was 26%. The “RA% 100 µM 60 min” value [4] was 32%, the “RA% 200 µM 20 min” value [4] was 23% and the “RA% 200 µM 60 min” value [4] was 32%.
With `CN(C)c1ccc(/C=C\C=C2C(=O)c3ccccc3C2=O)cc1` [Compound 6, (Z)-2-(3-(4-(dimethylamino)phenyl)allylidene)-1H-indene-1,3(2H)-dione] the “Iptr% 100 µM (inhibition of trypsin induced proteolysis)” value [1] was 29%, the “RM (±SD)” value [2] was −0.527 ± 0 and the melting point was 85 to 87 °C. The “AAPH% 100 µM (anti-lipid peroxidation)” value [3] was 9%, the “RA% 50 µM 20 min” value [4] was 6% and the “RA% 50 µM 60 min” value [4] was 6%. The “RA% 100 µM 20 min” value [4] was 22%, the “RA% 100 µM 60 min” value [4] was 23% and the “RA% 200 µM 20 min” value [4] was 15%. For the same molecule, the “RA% 200 µM 60 min” value [4] was 18%.
For `O=C1C(=Cc2cccc(Oc3ccccc3)c2)C(=O)c2ccccc21` [Compound 7, (Z)-2-(3-phenoxybenzylidene)-1H-indene-1,3(2H)-dione], the “Iptr% 100 µM (inhibition of trypsin induced proteolysis)” value [1] was 33%, the “RM (±SD)” value [2] was −0.196 ± 0.02 and the melting point was 143 to 145 °C. The “AAPH% 100 µM (anti-lipid peroxidation)” value [3] was 82%, the “RA% 50 µM 20 min” value [4] was 27% and the “RA% 50 µM 60 min” value [4] was 35%. For the same molecule, the “RA% 100 µM 20 min” value [4] was 40%, the “RA% 100 µM 60 min” value [4] was 50% and the “RA% 200 µM 20 min” value [4] was 75%. For the same molecule, the “RA% 200 µM 60 min” value [4] was 85%.
With `O=C1C(=Cc2ccc(OCc3ccc(Br)cc3)cc2)C(=O)c2ccccc21` [Compound 8, (Z)-2-(4-((4-bromobenzyl)oxy)benzylidene)-1H-indene-1,3(2H)-dione] the “Iptr% 100 µM (inhibition of trypsin induced proteolysis)” value [1] was 85%, the melting point was 222 to 224 °C and the “AAPH% 100 µM (anti-lipid peroxidation)” value [3] was 79%. The “RA% 50 µM 20 min” value [4] was 4%, the “RA% 50 µM 60 min” value [4] was 5% and the “RA% 100 µM 20 min” value [4] was 7%. For the same molecule, the “RA% 100 µM 60 min” value [4] was 7%, the “RA% 200 µM 20 min” value [4] was 0% and the “RA% 200 µM 60 min” value [4] was 0%.
With `CC(C)(C)c1cc(C=C2C(=O)c3ccccc3C2=O)c(O)c(C(C)(C)C)c1` [Compound 9, (Z)-2-(3,5-di-tert-butyl-2-hydroxybenzylidene)-1H-indene-1,3(2H)-dione] the “Iptr% 100 µM (inhibition of trypsin induced proteolysis)” value [1] was 98%, the “RM (±SD)” value [2] was −1.038 ± 0 and the melting point was 52 to 54 °C. The “AAPH% 100 µM (anti-lipid peroxidation)” value [3] was 96%, the “RA% 50 µM 20 min” value [4] was 4% and the “RA% 50 µM 60 min” value [4] was 3%. For the same molecule, the “RA% 100 µM 20 min” value [4] was 3%, the “RA% 100 µM 60 min” value [4] was 1% and the “RA% 200 µM 20 min” value [4] was 6%. The “RA% 200 µM 60 min” value [4] was 6%.
For `CC(C)(C)c1cc(C=C2C(=O)c3ccccc3C2=O)cc(C(C)(C)C)c1O` [Compound 10, (Z)-2-(3,5-di-tert-butyl-4-hydroxybenzylidene)-1H-indene-1,3(2H)-dione], the “Iptr% 100 µM (inhibition of trypsin induced proteolysis)” value [1] was “do not present any activity and no”, the “RM (±SD)” value [2] was −0.103 ± 0 and the melting point was 98 to 100 °C. For the same molecule, the “AAPH% 100 µM (anti-lipid peroxidation)” value [3] was 85%, the “RA% 50 µM 20 min” value [4] was 13% and the “RA% 50 µM 60 min” value [4] was 17%. For the same molecule, the “RA% 100 µM 20 min” value [4] was 100%, the “RA% 100 µM 60 min” value [4] was 85% and the “RA% 200 µM 20 min” value [4] was 71%. The “RA% 200 µM 60 min” value [4] was 71%.
In the case of `O=C1C(=Cc2c[nH]c3ccccc23)C(=O)c2ccccc21` [Compound 12, (Z)-2-((1H-indol-3-yl)methylene)-1H-indene-1,3(2H)-dione], the “Iptr% 100 µM (inhibition of trypsin induced proteolysis)” value [1] is reported as “do not present any activity and no”, the “RM (±SD)” value [2] is reported as −0.134 ± 0.02 and the melting point is reported as 283 to 285 °C. The “AAPH% 100 µM (anti-lipid peroxidation)” value [3] was 31%, the “RA% 50 µM 20 min” value [4] was 3% and the “RA% 50 µM 60 min” value [4] was 3%. The “RA% 100 µM 20 min” value [4] was 17%, the “RA% 100 µM 60 min” value [4] was 17% and the “RA% 200 µM 20 min” value [4] was 4%. The “RA% 200 µM 60 min” value [4] was 6%.
